Laboratory results as given in article PMC10222548, “Semisynthesis, Biological Evaluation and Molecular Docking Studies of Barbatic Acid Derivatives as Novel Diuretic Candidates” (Molecules, 2023).

Experiments:
mice = test system: mice; parameters: method as in PMID 32602352; conditions: cited from earlier work
[1] = test system: C2O4^2− transport, MDCK cells; assay: In vitro litholytic activity: C2O4^2− transport inhibition, Transwell chamber with MDCK cells; type: cell-based, canine; conditions: Canis lupus familiaris; 100 μmol/L, MDCK cells in Transwell; mean ± SD of three replicates; read-out: Transport Inhibition Rate (%) C2O4^2−
Summary of the method: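 MDCK monolayers in Transwell upper chamber, used once resistance ≥300 Ω cm^2, treated 24 h with compounds at 100 μmol/L or saline. CaC2O4 (30 mmol/L) then added above, PBS below; lower-chamber Ca^2+ and C2O4^2− measured by kit at 0.5, 1, 2, 3 h, inhibition rate from OD versus blank.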

[2] = test system: Na^+ transport, MDCK cells; assay: In vitro diuretic activity: Na^+ transport inhibition, Transwell chamber seeded with MDCK cells; type: cell-based, canine; conditions: 100 μmol/L, MDCK cells in Transwell, mean ± SD of three replicates, negative = promotion; for inhibition at 100 µM: Canis lupus familiaris, MDCK, read-out: Transport Inhibition Rate (%) Na^+
Summary of the method: (§1)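 MDCK monolayers on Transwell inserts (resistance ≥300 Ω cm^2) exposed apically to compounds at 100 μmol/L for 24 h. Then 15 mg/mL NaCl added to upper chamber; Na^+ and Cl^− in lower fluid measured by kit OD at 0.5, 1, 2 and 3 h. Inhibition % = (ODblank − ODexperimental)/ODblank × 100, blank = normal saline.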

MDCK cells = assay: MTT cytotoxicity assay on MDCK cells; type: cell-based, canine; conditions: Canis lupus familiaris, 100 μmol/L, 24 h, mean ± SD of three replicates, read-out: Growth Inhibition Rate (%)
Summary of the method: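 MDCK cells at 10^4/well, grown 24 h, exposed 24 h to compound at 100 μmol/L (saline control; hydrochlorothiazide 100 μmol/L reference). MTT 4 h, DMSO solubilization, OD 490 nm; growth inhibition % = (ODblank − ODexperimental)/ODblank × 100.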

[3] = test system: Ca^2+ transport, MDCK cells; assay: In vitro litholytic activity: Ca^2+ transport inhibition, Transwell chamber with MDCK cells; type: cell-based, canine; conditions: Canis lupus familiaris, 100 μmol/L, mean ± SD of three replicates, read-out: Transport Inhibition Rate (%) Ca^2+
[4] = test system: Cl^− transport, MDCK cells; assay: In vitro diuretic activity: Cl^− transport inhibition, Transwell chamber seeded with MDCK cells; type: cell-based, canine; conditions: Canis lupus familiaris; 100 μmol/L, MDCK cells in Transwell; mean ± SD of three replicates; negative = promotion; read-out: Transport Inhibition Rate (%) Cl^−
Summary of the method: as §1

Structure (SMILES)	diuretic effect on mice (mice)	inhibition at 100 µM [1]	inhibition at 100 µM [2]	inhibition at 100 µM (MDCK cells)	inhibition at 100 µM [3]	inhibition at 100 µM [4]	melting point	Transport Inhibition Rate (%) Na^+ [2]
COc1cc(C)c(C(=O)Oc2cc(C)c(C(=O)O)c(O)c2C)c(O)c1C [Compound 1, Barbatic acid]	had a diuretic effect on mice	2.97 ± 2.21%	12.3 ± 0.5%	< 0%	8.8 ± 0.18%	2.34 ± 1.2%	–	–
COC(=O)c1c(C)cc(OC(=O)c2c(C)cc(OC(C)C)c(C)c2O)c(C)c1O [Compound 6v, 3-hydroxy-4-(methoxycarbonyl)-2,5-dimethylphenyl 2-hydroxy-4-isopropoxy-3,6-dimethylbenzoate]	–	-17.9 ± 1.35%	-9.43 ± 0.75%	< 0%	0.19 ± 0.29%	-13.55 ± 0.1%	60 to 63 °C	–
CCOC(=O)c1c(C)cc(OC(=O)c2c(C)cc(OC(C)C)c(C)c2O)c(C)c1O [Compound 6w, 4-(ethoxycarbonyl)-3-hydroxy-2,5-dimethylphenyl 2-hydroxy-4-isopropoxy-3,6-dimethylbenzoate]	–	19 ± 2.64%	> 30%	0.7 ± 0.3%	1.55 ± 0.11%	-80.4 ± 1.2%	62 to 65 °C	33.11 ± 0.55%
CCCOC(=O)c1c(C)cc(OC(=O)c2c(C)cc(OC(C)C)c(C)c2O)c(C)c1O [Compound 6x, 3-hydroxy-2,5-dimethyl-4-(propoxycarbonyl)phenyl 2-hydroxy-4-isopropoxy-3,6-dimethylbenzoate]	–	-5.42 ± 2.83%	-1.11 ± 1.75%	< 0%	2.74 ± 0.22%	-1.92 ± 0.25%	117 to 120 °C	–
Cc1cc(OC(=O)c2c(C)cc(OC(C)C)c(C)c2O)c(C)c(O)c1C(=O)OC(C)C [Compound 6y, 3-hydroxy-4-(isopropoxycarbonyl)-2,5-dimethylphenyl 2-hydroxy-4-isopropoxy-3,6-dimethylbenzoate]	–	-26.3 ± 5.41%	29.4 ± 1.85%	< 0%	3.47 ± 0.3%	-43.3 ± 3.25%	140 to 143 °C	–
C=CCOC(=O)c1c(C)cc(OC(=O)c2c(C)cc(OC(C)C)c(C)c2O)c(C)c1O [Compound 6z, allyl 2-hydroxy-4-(2-hydroxy-4-isopropoxy-3,6-dimethylbenzoyloxy)-3,6-dimethylbenzoate]	–	0.23 ± 2.16%	-22.7 ± 1.05%	2.47 ± 0.5%	-2.56 ± 0.17%	-32.6 ± 3.1%	111 to 114 °C	–
